Test results taken from PMC7112239, “Latency reversal agents modulate HIV antigen processing and presentation to CD8 T cells” (PLoS Pathogens, 2020).
Where no end group is shown, it is not given here.

Experiments:
[1] = system: primary CD4 T cells; assay: CD25 and CD69 surface activation markers by flow cytometry; format: cell-based, human; details: 6, 24 and 48 h post treatment
Description: (§1) Romidepsin, Bryostatin, Disulfiram (Sigma), Ingenol-3-angelate (Santa Cruz Biotechnologies), Panobinostat (Selleckchem) were dissolved in DMSO (Fisher Scientific) to make stock solutions. Fresh aliquots were used for each experiment. The final concentrations for each LRA in cell culture were as follows: Panobinostat (30 nM), Romidepsin (40 nM), Disulfiram (500 nM), Bryostatin (10 nM), Ingenol-3-angelate (50 nM). Maximum in vitro stimulation was achieved by addition of anti-CD3/CD28 magnetic beads (Fisher Scientific) at a ratio of 1:1 bead to T cell as in [37]. For combination treatment, both drugs were added at the same time.
Untreated or LRA-treated CD4 T cells were stained with CD4-BV605, CD3-Pacific Blue (BD Biosciences) and HLA-ABC-AlexaFluor700 (Biolegend) to assess purity (95–99%) and CD38-FITC, CD69-PE, CD25-PerCpCy5.5 and HLA-DR-APC (BD Biosciences) to measure surface activation marker levels. Cellular activation levels were calculated by first gating on the double negative population of CD25 and CD69 of the non-treated sample on live, CD4- and CD3-positive cells and applying the same gates to the LRA-treated and CD3/CD28-stimulated samples as done in [37]. A similar gating strategy was applied to determine the proportion of CD38- and HLA-DR-positive CD4 T cells.

[2] = system: CD4 T cell extracts (antigen processing machinery); assay: In vitro degradation of HIV-1 Gag p24-10-35m in extracts of LRA-treated CD4 T cells, mass spectrometry; format: biochemical, human; details: for HLA-B57 KF11 epitope production: LRA-treated extracts over matched DMSO, n = 6–10 donors
Description: as §1
(§2) 2 nmol of pure peptide (MGH peptide core facility or Biosynthesis, Texas) was degraded with 15 ug of CD4 T cell extracts at 37°C in pH7.4 degradation buffer as in [37, 40]. Aliquots were taken at various time points and the reaction was stopped by addition of 5% (v/v) of Formic acid (Thermo Scientific) and the degradation products were purified by trichloroacetic acid (Sigma) precipitation (final concentration 5% (v/v)) and identified by in-house mass spectrometry as previously described. Briefly, equal amounts of the purified degradation products were injected into a NanoLC Ultra-HPLC (Eksigent) for salt removal and separation, then online nanosprayed into an LTQ Orbitrap Discovery mass spectrometer (Thermo) for identification. Peptides were separated in a NanoLC column (ChromXP C18, 3 um 120Å; Eksigent) over a gradient of 2–60% buffer B (buffer A: 0.1% (v/v) formic acid in MS-grade water (Fisher Scientific)); buffer B: 0.1% (v/v) formic acid in MS-grade acetonitrile (Fisher Scientific) in 95 min with a conserved flow rate of 250 nl/min. Mass spectra were recorded in the 370–2000 Daltons range. In the tandem mass spectrometry mode, the eight most intense peaks were selected with a window of 1 Dalton and fragmented using helium as collision gas and a voltage of 35 V. Peaks in the mass spectra were searched against the source peptide databases with Proteome Discoverer (version 1.3; Thermo) and quantitatively analyzed. For a given peptide, the integrated area under the peak is proportional to the relative abundance of the peptide in the sample. Each sample was run on the mass spectrometer at least twice.

[3] = system: proteasome; details: cited from earlier work
Excerpt: Most LRAs selected so far to relieve transcriptional blocks act on signaling pathways and histone acetylation but are not specific to HIV LTR promoters or targeted to the reservoirs, thus their effect should be considered globally on genes and cellular machineries of cell populations.

[4] = system: post-proteasomal aminopeptidases; assay: Aminopeptidase hydrolytic activity in live CD4 T cells (fluorogenic H-Leu-AMC); format: cell-based, human; details: live primary CD4 T cells of healthy donors, 48 h treatment, versus DMSO; Bryostatin 10 nM, Panobinostat 30 nM; 50 μM H-Leu-AMC, 37°C; n = 8
Description: as §1
The proteasome hydrolytic activities caspase-like (50 μM Z-LLE-AMC; EMD Millipore), tryptic (50 μM Boc-LRR-AMC; Bachem), chymotryptic (50 μM Suc-LLVY-AMC; Bachem), post-proteasomal aminopeptidases (50 μM H-Leu-AMC; Bachem) were measured in 25x10^3 live CD4 T cells at given time points after drug treatment with peptidase-specific fluorogenic substrates as in [37, 40]. […] The rate of fluorescence emission, which is proportional to the proteolytic activity, was measured every 600 s at 37°C in a Victor-3 Plate Reader (Perkin Elmer), as in [37].

[5] = system: CD4 T cell extracts (antigen processing machinery); assay: In vitro degradation of HIV-1 Gag p24-161-24m in extracts of LRA-treated CD4 T cells, mass spectrometry; format: biochemical, human
Description: as §1, §2

[6] = system: HIV-infected HLA-B57+ CD4 T cells; assay: Endogenous processing and presentation assay: CD107a degranulation of epitope-specific CD8 T cells and peptide equivalent; format: cell-based, human; details: for score of peptide presentation efficiency (peptide equivalent over HIV infection rate) at 24 hours / equivalent peptide presented (TW10, ISW9, KF11) at 24 hpi: 24 hpi; for score of peptide presentation efficiency (peptide equivalent over HIV infection rate) at 24 hours: all 3 epitopes; for equivalent peptide presented (TW10, ISW9, KF11) at 24 hpi: radar plots
[7] = cited from earlier work
Excerpt: We similarly assessed the processing of another HIV fragment, p24-161-24mer, after LRAs or aCD3/CD28 treatments (Fig 3A).

[8] = extracts of CD4 T cells treated 48 h, 120-minute degradation, representative experiment
[9] = over matched DMSO, n = 8–11 healthy donors

Compound: CCN(CC)C(=S)SSC(=S)N(CC)CC [Disulfiram]
- proportion of CD25+ and/or CD69+ primary CD4 T cells compared to DMSO-treated cells [1]: Neither HDACi nor disulfiram changed the proportion
- HLA-B57 KF11 epitope production [2]: decreased
- QW11 epitope production ([2]; treated extracts over matched DMSO, n = 2–6 donors): increased
- proteasome activities in cell lines ([3]; effect on NF-κB): inhibited proteasome activities

Compound: Cc1[nH]c2ccccc2c1CCNCc1ccc(/C=C/C(=O)NO)cc1 [Panobinostat]
- aminopeptidase hydrolytic activities, average fold change [4]: 0.78 fold
- HLA-B57 KF11 epitope production [2]: unchanged
- amount of fragments starting at V2, V15, V17 of p24-10-35m [2, 8]: increased
- reduction of fragments starting at H3 or N12 of p24-10-35m ([2]; extracts of CD4 T cells treated 48 h, 120-minute degradation, representative experiment, versus DMSO): 10 fold
- HLA-B57 ISW9 epitope production ([2]; treated extracts over matched DMSO, n = 4–9 donors): increased
- peptide production at each aa of p24-161-24mer [5, 9]: decreased peptide production at most aa
- production of 8-11aa peptides throughout the p24-161-24m sequence ([5]; representative experiment): reduced
- KF11 and ISW9 peptide equivalent displayed by HIV-infected CD4 T cells [6]: reduction of peptide presentation
- score of peptide presentation efficiency (peptide equivalent over HIV infection rate) at 24 hours [6]: second highest
- equivalent peptide presented (TW10, ISW9, KF11) at 24 hpi [6]: highest KF11 and ISW9 peptide presentations

Compound: CC[C@H](C)[C@H](NC(=O)[C@@H](NC(=O)[C@H](CCC(=O)O)NC(=O)[C@@H]1CCCN1C(=O)[C@H](CO)NC(=O)[C@H](Cc1ccccc1)NC(=O)[C@H](C)NC(=O)[C@@H](N)CCCCN)C(C)C)C(=O)N1CCC[C@H]1C(=O)N[C@@H](CCSC)C(=O)N[C@@H](Cc1ccccc1)C(=O)O [KF11]
- degradability in the cytosol of primary cells [7]: less degradable

Compound: ISPRTLNAW [ISW9]
- degradability in the cytosol of primary cells [7]: among the most degradable

Compound: CCC/C=C/C=C/C(=O)O[C@H]1/C(=C/C(=O)OC)C[C@H]2C[C@H]([C@@H](C)O)OC(=O)C[C@H](O)C[C@@H]3C[C@H](OC(C)=O)C(C)(C)[C@](O)(C[C@@H]4C/C(=C/C(=O)OC)C[C@H](/C=C/C(C)(C)[C@]1(O)O2)O4)O3 [Bryostatin]
- aminopeptidase hydrolytic activities, average fold change [4]: 1.6 fold
- amount of fragments starting at V2, V15, V17 of p24-10-35m [2, 8]: reduced
- difference in amount of 8-11aa peptides of p24-10-35m versus DMSO- or Panobinostat-treated extracts ([2]; second half of the sequence, representative experiment): up to 5 times
- increase of production of 8-11aa peptides in p24-161-24m ([5]; first half of the sequence, representative experiment): 2- to 5 fold
- ratio of 8-11aa peptides of p24-161-24m produced in treated over DMSO treated cells ([5]; n = 4–10 donors): significantly increased
- number of significantly changed N- or C-terminal cleavage sites, p24-161-24mer [5, 9]: 6
- score of peptide presentation efficiency (peptide equivalent over HIV infection rate) at 24 hours [6]: lowest
- equivalent peptide presented (TW10, ISW9, KF11) at 24 hpi [6]: among the lowest
- efficiency of peptide presentation overtime ([6]; 24 to 72 hpi): increased
- proteasome activities in fibroblasts [3]: can enhance proteasome activities
